# Experiments:
# Test in all cases: MIC, broth microdilution (CLSI), substance alone or ATB combined with compound at 4 or 8 μg/mL
# SAU 29213 = assay type: cell-based, S. aureus; details: SAU 29213
# In short: (§1)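 Broth microdilution; ca-MHB; 5·10^5 CFU/mL; 35° C, 16-20 h; compound alone or fixed 4/8 μg/mL with antibiotic series; endpoint = no visible growth.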
# KPN 6299 = assay type: cell-based, K. pneumoniae
# In short: as §1
# KPN BAA-1898 = assay type: cell-based, K. pneumoniae; details: KPN BAA-1898
# In short: as §1
# KPN UFR42 = assay type: cell-based, K. pneumoniae; details: KPN UFR42
# In short: as §1
# ECL P99 = assay type: cell-based, E. cloacae; details: ECL P99
# In short: as §1
# ECO UFR39 = assay type: cell-based, E. coli; details: ECO UFR39
# In short: as §1
smiles,measurement,setting,value
CN(C)c1cc(NC(=O)CNC(C)(C)C)c(O)c2c1C[C@H]1C[C@H]3[C@H](N(C)C)C(O)=C(C(N)=O)C(=O)[C@@]3(O)C(O)=C1C2=O [TGC],MIC ATB alone,SAU 29213; antibiotic alone,0.25 mg/L
same,MIC ATB combined with Example 1 @8 μg/ml,SAU 29213; with Example 1 @8 μg/ml,0.125 mg/L
same,MIC ATB combined with Example 1 @8 μg/ml,SAU 29213; with Example 1 at 8 μg/ml,0.125 mg/L
same,MIC ATB combined with Example 7 @8 μgml,SAU 29213; with Example 7 at 8 μg/ml,0.25 mg/L
same,MIC ATB combined with Example 9 @4 μg/ml,SAU 29213; with Example 9 @4 μg/ml,<0.031 mg/L
same,MIC ATB combined with Example 9 @4 μg/ml,SAU 29213; with Example 9 at 4 μg/ml,<0.031 mg/L
same,MIC ATB combined with Example 11 @8 μg/ml,SAU 29213; with Example 11 at 8 μg/ml,<=0.031 μg/mL
same,MIC ATB combined with Example 12 @8 μg/ml,SAU 29213; with Example 12 at 8 μg/ml,<0.031 mg/L
same,MIC ATB combined with Example 13 @8 μg/ml,SAU 29213; with Example 13 at 8 μg/ml,0.063 mg/L
same,MIC ATB combined with Example 14 @8 μg/ml,SAU 29213; with Example 14 at 8 μg/ml,<0.031 mg/L
same,MIC ATB combined with Example 15 @4 μgml,SAU 29213; with Example 15 at 4 μg/ml,<0.031 mg/L
same,MIC ATB combined with Example 16 @4 μg/ml,SAU 29213; with Example 16 at 4 μg/ml,<0.031 mg/L
same,MIC ATB alone,KPN 6299; antibiotic alone,1 mg/L
same,MIC ATB combined with Example 1 @8 μg/ml,KPN 6299; with Example 1 @8 μg/ml,1 mg/L
same,MIC ATB combined with Example 1 @8 μg/ml,KPN 6299; with Example 1 at 8 μg/ml,1 mg/L
same,MIC ATB combined with Example 7 @8 μgml,KPN 6299; with Example 7 at 8 μg/ml,1 mg/L
same,MIC ATB combined with Example 9 @4 μg/ml,KPN 6299; with Example 9 @4 μg/ml,0.063 mg/L
same,MIC ATB combined with Example 9 @4 μg/ml,KPN 6299; with Example 9 at 4 μg/ml,0.063 mg/L
same,MIC ATB combined with Example 11 @8 μg/ml,KPN 6299; with Example 11 at 8 μg/ml,<0.031 mg/L
same,MIC ATB combined with Example 12 @8 μg/ml,KPN 6299; with Example 12 at 8 μg/ml,<0.031 mg/L
same,MIC ATB combined with Example 13 @8 μg/ml,KPN 6299; with Example 13 at 8 μg/ml,0.5 mg/L
same,MIC ATB combined with Example 14 @8 μg/ml,KPN 6299; with Example 14 at 8 μg/ml,<0.031 mg/L
same,MIC ATB combined with Example 15 @4 μgml,KPN 6299; with Example 15 at 4 μg/ml,<0.031 mg/L
same,MIC ATB combined with Example 16 @4 μg/ml,KPN 6299; with Example 16 at 4 μg/ml,<0.031 mg/L
same,MIC ATB alone,KPN BAA-1898; antibiotic alone,1 mg/L
same,MIC ATB combined with Example 1 @8 μg/ml,KPN BAA-1898; with Example 1 @8 μg/ml,1 mg/L
same,MIC ATB combined with Example 1 @8 μg/ml,KPN BAA-1898; with Example 1 at 8 μg/ml,1 mg/L
same,MIC ATB combined with Example 7 @8 μgml,KPN BAA-1898; with Example 7 at 8 μg/ml,1 mg/L
same,MIC ATB combined with Example 9 @4 μg/ml,KPN BAA-1898; with Example 9 @4 μg/ml,<0.031 mg/L
same,MIC ATB combined with Example 9 @4 μg/ml,KPN BAA-1898; with Example 9 at 4 μg/ml,<0.031 mg/L
same,MIC ATB combined with Example 11 @8 μg/ml,KPN BAA-1898; with Example 11 at 8 μg/ml,<0.031 mg/L
same,MIC ATB combined with Example 12 @8 μg/ml,KPN BAA-1898; with Example 12 at 8 μg/ml,<0.031 mg/L
same,MIC ATB combined with Example 13 @8 μg/ml,KPN BAA-1898; with Example 13 at 8 μg/ml,1 mg/L
same,MIC ATB combined with Example 14 @8 μg/ml,KPN BAA-1898; with Example 14 at 8 μg/ml,<0.031 mg/L
same,MIC ATB combined with Example 15 @4 μgml,KPN BAA-1898; with Example 15 at 4 μg/ml,<0.031 mg/L
same,MIC ATB combined with Example 16 @4 μg/ml,KPN BAA-1898; with Example 16 at 4 μg/ml,<0.031 mg/L
same,MIC ATB alone,KPN UFR42; antibiotic alone,2 mg/L
same,MIC ATB combined with Example 1 @8 μg/ml,KPN UFR42; with Example 1 @8 μg/ml,2 mg/L
same,MIC ATB combined with Example 1 @8 μg/ml,KPN UFR42; with Example 1 at 8 μg/ml,2 mg/L
same,MIC ATB combined with Example 7 @8 μgml,KPN UFR42; with Example 7 at 8 μg/ml,0.5 mg/L
same,MIC ATB combined with Example 9 @4 μg/ml,KPN UFR42; with Example 9 @4 μg/ml,0.25 mg/L
same,MIC ATB combined with Example 9 @4 μg/ml,KPN UFR42; with Example 9 at 4 μg/ml,0.25 mg/L
same,MIC ATB combined with Example 11 @8 μg/ml,KPN UFR42; with Example 11 at 8 μg/ml,<0.031 mg/L
same,MIC ATB combined with Example 12 @8 μg/ml,KPN UFR42; with Example 12 at 8 μg/ml,<0.031 mg/L
same,MIC ATB combined with Example 13 @8 μg/ml,KPN UFR42; with Example 13 at 8 μg/ml,2 mg/L
same,MIC ATB combined with Example 14 @8 μg/ml,KPN UFR42; with Example 14 at 8 μg/ml,<0.031 mg/L
same,MIC ATB combined with Example 15 @4 μgml,KPN UFR42; with Example 15 at 4 μg/ml,<0.031 mg/L
same,MIC ATB combined with Example 16 @4 μg/ml,KPN UFR42; with Example 16 at 4 μg/ml,<0.031 mg/L
same,MIC ATB alone,ECL P99; antibiotic alone,0.5 mg/L
same,MIC ATB combined with Example 1 @8 μg/ml,ECL P99; with Example 1 @8 μg/ml,<0.031 mg/L
same,MIC ATB combined with Example 1 @8 μg/ml,ECL P99; with Example 1 at 8 μg/ml,<0.031 mg/L
same,MIC ATB combined with Example 7 @8 μgml,ECL P99; with Example 7 at 8 μg/ml,0.25 mg/L
same,MIC ATB combined with Example 9 @4 μg/ml,ECL P99; with Example 9 @4 μg/ml,<0.031 mg/L
same,MIC ATB combined with Example 9 @4 μg/ml,ECL P99; with Example 9 at 4 μg/ml,<0.031 mg/L
same,MIC ATB combined with Example 11 @8 μg/ml,ECL P99; with Example 11 at 8 μg/ml,<0.031 mg/L
same,MIC ATB combined with Example 12 @8 μg/ml,ECL P99; with Example 12 at 8 μg/ml,<0.031 mg/L
same,MIC ATB combined with Example 13 @8 μg/ml,ECL P99; with Example 13 at 8 μg/ml,0.25 mg/L
same,MIC ATB combined with Example 14 @8 μg/ml,ECL P99; with Example 14 at 8 μg/ml,<0.031 mg/L
same,MIC ATB combined with Example 15 @4 μgml,ECL P99; with Example 15 at 4 μg/ml,<0.031 mg/L
same,MIC ATB combined with Example 16 @4 μg/ml,ECL P99; with Example 16 at 4 μg/ml,<0.031 mg/L
same,MIC ATB alone,ECO UFR39; antibiotic alone,0.5 mg/L
same,MIC ATB combined with Example 1 @8 μg/ml,ECO UFR39; with Example 1 @8 μg/ml,<0.031 mg/L
same,MIC ATB combined with Example 1 @8 μg/ml,ECO UFR39; with Example 1 at 8 μg/ml,<0.031 mg/L
same,MIC ATB combined with Example 7 @8 μgml,ECO UFR39; with Example 7 at 8 μg/ml,<0.031 mg/L
same,MIC ATB combined with Example 9 @4 μg/ml,ECO UFR39; with Example 9 @4 μg/ml,<0.031 mg/L
same,MIC ATB combined with Example 9 @4 μg/ml,ECO UFR39; with Example 9 at 4 μg/ml,<0.031 mg/L

# Source: patent publication US20200024278A1, “COMPOSITION COMPRISING ANTIBIOTIC COMPOUND AND AN HETEROCYCLIC COMPOUND AND THEIR USE IN PREVENTING OR TREATING BACTERIAL INFECTIONS” (MUTABILIS, priority 2016, published 2020)
